# Test results published in patent publication US20020016346A1, “Method for enhancing outflow of aqueous humor in treatment of glaucoma” (The Regents University of California, a California …, priority 1994, published 2002).
# Tests used:
# [1] = tested on: eye of a rabbit; test: Intra-ocular pressure in rabbits after subconjunctival injection; format: in vivo
# Method: Male albino New Zealand rabbits weighing≧2 Kg were used for in vivo experiments performed under various active animal use protocols approved by the Institutional Animal Care and Use Committee at UC Davis. Animals were sedated with an intravenous dose of Napentabarbitol, 1-2 mg/Kg to permit their handling and frequent measurement of intra-ocular pressure (IOP). Topical anesthesia consisting of Proparacaine HCl (Alcaine™) was used for IOP measurements. A pneumatonometer (Mentor O & O Classic Model 30 Penumatonometer™, Norwell, Mass.) calibrated to a known (25 mmHg) pressure prior to each experiment was used for all IOP measurements. This model of Pneumatonometer provides a readout of standard deviation of each measurement; only measurements with a standard deviation of≦1 mmHg were accepted and most were less than 0.5 mmHg. Following sedation, IOP measurements were carried out over at least 30 minutes to assure that a stable baseline IOP was present.
# Drugs and/or vehicle was administered to one eye of each animal via subconjunctival injection in order to bypass any barriers to drug penetration, such as an intact corneal and conjunctival epithelium and to achieve rapid and high concentrations of drug, bypassing epithelial barriers. The contralateral eye treated only with vehicle served as a control for each animal. Two syringes were prepared for each experiment, one containing drug and vehicle, the other containing only vehicle. […] Injections raised a prominent bleb, confirming subconjunctival placement of the drug or vehicle. This bleb then smoothed out over about ten minutes, indicating diffusion of the drug or vehicle throughout the subconjunctival space.
# Measurements of intra-ocular pressure were taken at various intervals following the subconjunctival administration of the drug and/or vehicle. IOP in both eyes fluctuated over time reflecting the level of anesthesia. During the course of the experiment, the animal handlers and investigators were masked as to which eve had received the drug or control injection.
# [2] = molecular target: T1, Na—K—Cl cotransport (Bos taurus, UniProt F1MS08); test: K influx (86Rb) in bovine TM cell monolayers; format: cell-based; conditions: bovine TM cells
# T1 sequence (F1MS08 1-1204): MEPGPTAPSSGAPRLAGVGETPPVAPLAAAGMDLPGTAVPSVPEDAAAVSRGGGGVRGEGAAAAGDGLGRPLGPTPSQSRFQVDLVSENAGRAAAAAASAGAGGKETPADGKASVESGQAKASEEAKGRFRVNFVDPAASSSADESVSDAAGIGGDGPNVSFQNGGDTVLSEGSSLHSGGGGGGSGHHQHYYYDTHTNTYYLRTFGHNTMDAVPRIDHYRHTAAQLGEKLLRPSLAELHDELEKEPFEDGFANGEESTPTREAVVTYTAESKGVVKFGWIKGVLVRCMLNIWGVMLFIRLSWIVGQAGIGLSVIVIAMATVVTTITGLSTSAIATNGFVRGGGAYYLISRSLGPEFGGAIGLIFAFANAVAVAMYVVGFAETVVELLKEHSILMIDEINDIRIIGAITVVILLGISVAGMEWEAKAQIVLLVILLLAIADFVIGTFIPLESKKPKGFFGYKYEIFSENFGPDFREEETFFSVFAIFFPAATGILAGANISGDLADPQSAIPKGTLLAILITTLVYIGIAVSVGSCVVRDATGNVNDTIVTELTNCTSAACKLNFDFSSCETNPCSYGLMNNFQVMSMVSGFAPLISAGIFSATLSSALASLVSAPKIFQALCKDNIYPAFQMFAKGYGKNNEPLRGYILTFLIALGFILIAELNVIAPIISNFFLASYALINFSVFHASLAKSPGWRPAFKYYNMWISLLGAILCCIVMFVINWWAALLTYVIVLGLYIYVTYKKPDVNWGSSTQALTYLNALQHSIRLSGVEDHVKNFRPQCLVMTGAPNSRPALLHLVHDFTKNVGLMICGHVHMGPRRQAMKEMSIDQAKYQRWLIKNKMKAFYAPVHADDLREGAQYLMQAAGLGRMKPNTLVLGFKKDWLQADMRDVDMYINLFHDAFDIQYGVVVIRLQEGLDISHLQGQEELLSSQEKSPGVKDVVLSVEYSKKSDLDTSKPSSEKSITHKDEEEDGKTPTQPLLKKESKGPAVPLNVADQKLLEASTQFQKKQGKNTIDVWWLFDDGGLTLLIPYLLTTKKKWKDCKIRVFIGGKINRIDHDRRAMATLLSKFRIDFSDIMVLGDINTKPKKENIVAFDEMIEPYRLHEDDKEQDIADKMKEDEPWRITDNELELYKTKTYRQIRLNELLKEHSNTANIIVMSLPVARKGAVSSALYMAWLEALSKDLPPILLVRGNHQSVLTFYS
# Method: (§1) Details of this method have been published previously (O'Donnell, M. E., supra, 1989). Briefly, bovine or human TM cell monolayers on 24 well plates were equilibrated for 10 minutes at 37° C. in a Hepes-buffered minimal essential medium (MEM) containing (in mM): 144 Na, 147 Cl, 5.8 K, 1.2 Ca, 4.2 HCO3, 0.4 H2PO4, […], 0.4 SO4, 5.6 glucose and 20 Hepes. […] The assay medium also contained ^86Rb (1 μCi/ml) (Dupont New England Nuclear, Boston, Mass.). The assay was terminated by rinsing the wells with ice-cold isotonic MgCl2, then extracting the contents with 0.2% sodium dodecyl sulfate (SDS), and determining the amount of radioactive contents by liquid scintillation. Osmolarities of all preincubation and assay media were verified by osmometry (Model 3W2, Advanced Instruments, Norwood, Mass.).
# The effects of hormones, neurotransmitters and second messengers on Bumetanide-sensitive K influx of bovine trabecular meshwork cells were assessed using the procedures of Example 1. […] The control is the Hepes-buffered medium containing Na, K, Cl, CA and other ions as described in Example 1B. […] The data represent the mean values±SEM of quadruplicate determinations from two experiments.
# [3] = molecular target: T2, Na—K—Cl cotransport (Homo sapiens, UniProt P55011); test: K influx (86Rb) in human TM cell monolayers; format: cell-based; conditions: human TM cells, 1 mM ethacrynic acid
# T2 construct: bovine or human TM cell monolayers on 24 well plates; endogenous in cells; host or cells: primary cultured human trabecular meshwork cells
# T2 sequence (P55011 1-1212): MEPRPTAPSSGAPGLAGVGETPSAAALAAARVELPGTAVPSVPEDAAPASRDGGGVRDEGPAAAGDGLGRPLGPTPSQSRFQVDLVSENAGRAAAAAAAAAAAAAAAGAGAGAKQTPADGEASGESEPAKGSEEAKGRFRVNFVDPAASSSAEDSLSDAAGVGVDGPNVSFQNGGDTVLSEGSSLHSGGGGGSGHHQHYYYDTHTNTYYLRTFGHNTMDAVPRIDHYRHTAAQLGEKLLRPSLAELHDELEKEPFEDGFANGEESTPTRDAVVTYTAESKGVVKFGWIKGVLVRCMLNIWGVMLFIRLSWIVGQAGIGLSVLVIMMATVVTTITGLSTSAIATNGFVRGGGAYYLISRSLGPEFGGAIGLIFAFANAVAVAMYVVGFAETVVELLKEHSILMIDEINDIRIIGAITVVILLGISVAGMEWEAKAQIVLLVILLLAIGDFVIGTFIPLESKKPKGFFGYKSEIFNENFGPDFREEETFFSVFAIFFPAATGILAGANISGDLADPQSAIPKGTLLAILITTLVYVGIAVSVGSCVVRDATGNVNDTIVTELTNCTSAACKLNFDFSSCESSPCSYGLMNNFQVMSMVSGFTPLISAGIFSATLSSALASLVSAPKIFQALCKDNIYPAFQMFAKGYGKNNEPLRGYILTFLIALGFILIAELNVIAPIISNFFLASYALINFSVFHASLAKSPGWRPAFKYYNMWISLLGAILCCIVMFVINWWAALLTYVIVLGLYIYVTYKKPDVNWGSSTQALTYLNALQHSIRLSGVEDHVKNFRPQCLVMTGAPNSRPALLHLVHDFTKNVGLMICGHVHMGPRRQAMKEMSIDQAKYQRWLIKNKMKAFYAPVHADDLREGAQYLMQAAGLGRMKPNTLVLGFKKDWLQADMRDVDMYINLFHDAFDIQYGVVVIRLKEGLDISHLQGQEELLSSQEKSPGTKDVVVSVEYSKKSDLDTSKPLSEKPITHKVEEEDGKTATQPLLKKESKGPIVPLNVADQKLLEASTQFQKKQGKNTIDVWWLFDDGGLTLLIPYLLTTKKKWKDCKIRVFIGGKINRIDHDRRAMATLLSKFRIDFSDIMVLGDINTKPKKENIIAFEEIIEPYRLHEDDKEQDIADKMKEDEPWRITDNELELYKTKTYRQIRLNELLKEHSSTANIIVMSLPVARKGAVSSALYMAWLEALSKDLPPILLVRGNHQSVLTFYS
# Method: as §1
# [4] = tested on: bovine TM cells; test: TM cell volume by electronic cell sizing (Coulter Counter); format: cell-based; conditions: 30 minute exposure; bumetanide 10 μM, ethacrynic acid 1 mM; versus Hepes MEM control
# Method: By the second method, TM cells were trypsinized briefly in Ca-free medium, then rinsed with medium containing trypsin inhibitor and suspended in Hepes MEM. Mean cell volumes were then analyzed by electronic cell sizing on a Coulter Counter™ […] (Model ZM), with channelizer (C256), using at least 50,000 cells per data point and an orifice diameter of 140 μm. Aliquots of suspended cells were diluted into Hepes MEM containing the tonicity and/or agents to be evaluated. Mean cell volumes of each suspension aliquot were followed over time, starting at 1 minute after addition of cells to the assay media. Cell suspensions were maintained at 37° C. throughout the assay period. Absolute volumes (picoliters/cell) were calculated from distribution curves of cell diameter, using a standard curve generated by polystyrene latex beads of known diameter.
# In order to determine whether the Na—K—Cl cotransporter of TM cells may play a role in restoration of intracellular volume following hypertonicity-induced cell shrinkage, we evaluated the effect of hypertonicity on TM cell volume and Na^+—K^+—2Cl^− cotransport activity. […] The intracellular volume of the cells then increased over a slower time course, with volume recovering to approximately 84% by 33 minutes as shown in FIG. 3A.
# [5] = VP 100 nM, NE 10 μM, Ach 1 μM, cAMP 50 μM, cGMP 50 μM, A23187 1 μM, PMA 10 nM, Ca-free medium plus 5 μM BAPTA-AM, control 25.6 ± 0.71
smiles,measurement,setting,value
Cc1cccc(Nc2ccncc2S(=O)(=O)NC(=O)NC(C)C)c1 [torasemide],IOP-lowering effect,[1]; 0.1 cc of 1 μM torasemide subconjunctival,time coarse and magnitude similar to that seen with bumetanide
same,average IOP lowering effect,"[1]; average of two experiments, FIG. 6",over 20%
NS(=O)(=O)c1cc(C(=O)O)c(NCc2ccco2)cc1Cl [furosemide],time after injection of significant drop in relative IOP,[1]; 0.1 cc of 100 μM furosemide subconjunctival,25 min
same,maximal inhibition (relative IOP),"[1]; 0.1 cc of 100 μM furosemide subconjunctival, experiment ended at 45 minutes",12.4%
"CNc1ccc2oc(C[C@H]3O[C@@]4(CC[C@H]3C)O[C@H]([C@H](C)C(=O)c3ccc[nH]3)[C@H](C)C[C@H]4C)nc2c1C(=O)O [Compound A23187, A23187]",BUMETANIDE-SENSITIVE K INFLUX,[2]; [5],33.4 ± 5.33 μmol/g protein/min
"CCCCCCCCCCCCCC(=O)O[C@@H]1[C@@H](C)[C@@]2(O)[C@@H](C=C(CO)C[C@]3(O)C(=O)C(C)=C[C@@H]23)[C@@H]2C(C)(C)[C@]12OC(C)=O [PMA, phorbol 12-myristate 13-acetate]",BUMETANIDE-SENSITIVE K INFLUX,[2]; [5],34.0 ± 1.33 μmol/g protein/min
"NC(=O)CC[C@@H]1NC(=O)[C@H](Cc2ccccc2)NC(=O)[C@H](Cc2ccc(O)cc2)NC(=O)[C@@H](N)CSSC[C@@H](C(=O)N2CCC[C@H]2C(=O)N[C@@H](CCCN=C(N)N)C(=O)NCC(N)=O)NC(=O)[C@H](CC(N)=O)NC1=O [VP, vasopressin]",BUMETANIDE-SENSITIVE K INFLUX,[2]; [5],40.4 ± 1.05 μmol/g protein/min
C=C(CC)C(=O)c1ccc(OCC(=O)O)c(Cl)c1Cl [ethacrynic acid],BUMETANIDE-SENSITIVE K INFLUX,[2]; 1 mM ethacrynic acid,abolished
same,BUMETANIDE-SENSITIVE K INFLUX,[3],abolished
same,intracellular volume,[4],significant reduction
NS(=O)(=O)c1cc(C(=O)O)cc(NCc2ccccc2)c1Oc1ccccc1 [benzmetanide],time after which significant reduction of IOP was observed,[1]; 0.1 cc of 7.5 μM benzmetanide subconjunctival,15 min
same,decrease in IOP,"[1]; 0.1 cc of 7.5 μM benzmetanide subconjunctival, after 50 minutes, relative to contralateral control eye",24%
